Measured values published in US4450115A, “Amino-alcohol derivatives” (Kyowa Hakko Kogyo Co., Ltd., priority 1979, dated 1984).
Read-outs that look alike come from different tables or passages of the source.

Columns and labels:
[1] = tested on: main artery of the dogs' organ; assay: Effect on organ blood flow; type: in vivo, mongrel dogs; conditions: Canis lupus familiaris, iv, Table 5, 0.1 mg administration, femoral vein;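 note: percent change relative to blood flow before compound administration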
in vivo = conditions: mouse, male dd-strain mice
Source text: The test compounds were orally administered to male dd-strain mice weighing 20-25 g.

Effect on heart rate = type: in vivo, mongrel dogs; conditions: Table 7; dogs, 1 mg/kg, femoral vein
Experimental: (§1) In experiments (a), (b), (c) and (d), 3-4 male or female mongrel dogs (weight: 10-20 Kg) as one group were anesthetized by intravenous administration of 30 mg/kg of pentobarbital-Na. All compounds were dissolved in polyethylene glycol 400 and administered to the femoral vein.
(d) Effect on heart rate (beats/min.)

[2] = tested on: main artery of the dogs' organ; assay: Effect on organ blood flow; type: in vivo, mongrel dogs; conditions: Canis lupus familiaris, iv, Table 7, femoral vein;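 note: percent change relative to blood flow before compound administration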
Experimental: as §1
(b) Effect on organ blood flow M (%)
In this test, 1 mg/kg of each compound shown in Tables 5 and 7 is administered to the dogs and an electromagnetic probe is attached to the main artery of the dogs' organ to measure the flow of blood.

β2-adrenergic receptor = assay: β2 blocking activity (inhibition of Isoproterenol-induced decrease in diastolic blood pressure); type: in vivo, mongrel dogs; conditions: Table 6; dogs, test compound 0.1 mg/kg; 0.5 μg/kg Isoproterenol i.v.
Experimental: as §1
(c-3) β2 blocking activity
In this test, 0.5 μg/kg of Isoproterenol is intravenously administered to the dogs to cause a decrease in diastolic blood pressure.

α-adrenergic receptor = assay: α blocking activity (inhibition of Norepinephrine-induced increase in systolic blood pressure); type: in vivo, mongrel dogs; conditions: Table 6; dogs, test compound 0.1 mg/kg; 3 μg/kg Norepinephrine i.v.
Experimental: as §1
(c-1) α blocking activity
In this test, 3 μg/kg of Norepinephrine is intravenously administered to the dogs to cause an increase in systolic blood pressure.

β1-adrenergic receptor = assay: β1 blocking activity (inhibition of Isoproterenol-induced increase in heart rate); type: in vivo, mongrel dogs; conditions: Table 6; dogs, test compound 0.1 mg/kg; 0.5 μg/kg Isoproterenol i.v.
Experimental: as §1
(c-2) β1 blocking activity
In this test, 0.5 μg/kg of Isoproterenol is intravenously administered to the dogs to cause an increase in the heart rate.

[3] = read-out: Organ blood flow, Crotch (percentage change)
[4] = read-out: Organ blood flow, Malleus (percentage change)

## CCCC(=O)Nc1ccc(OCC(O)CNCC2COc3ccccc3O2)c(C(C)=O)c1 (stereo not shown) [Compound 4, 1-(4-butyrylamido-2-acetyl)phenoxy-3-(1,4-benzodioxane-2-methaneamino)-2-propanol]
[1]; [3]
  change in vivo at 0.1 mg: -18%
[1]; [4]
  change in vivo at 0.1 mg: -46%
In vivo; Table 5, oral
  LD50: > 1000 mg/kg

## CCOC(=O)Cc1ccc(OCC(O)CNCCN(Cc2ccccc2)C(C)COc2ccccc2)cc1 (stereo not drawn) [Compound 26, 1-(4-ethoxycarbonylmethylphenoxy)-3-{β-[N-benzyl-N-(1-methyl-2-phenoxyethyl)]aminoethyl}amino-2-propanol]
Effect on heart rate
  Heart rate (decrease): -20 beats/min.
In vivo; Table 7, oral
  LD50: > 1000 mg/kg
[2]; [3]
  change in vivo at 1 mg/kg: -12%
[2]; [4]
  change in vivo at 1 mg/kg: 67%

## CC(=O)Nc1ccc(OCC(O)CNCCN(Cc2ccccc2)C(C)COc2ccccc2)cc1 (stereo not drawn) [Compound 27, 1-(4-acetamidophenoxy)-3-{β-[N-benzyl-N-(1-methyl-2-phenoxyethyl)]aminoethyl} amino-2-propanol]
Effect on heart rate
  Heart rate (decrease): -13 beats/min.
In vivo; Table 7, oral
  LD50: > 1000 mg/kg
[2]; [3]
  change in vivo at 1 mg/kg: 3%
[2]; [4]
  change in vivo at 1 mg/kg: 100%

## CCCC(=O)Nc1ccc(OCC(O)CNCCN(Cc2ccccc2)C(C)COc2ccccc2)c(C(C)=O)c1 (stereo not drawn) [Compound 28, 1-(4-butyrylamido-2-acetylphenoxy)-3-{β-[N-benzyl-N-(1-methyl-2-phenoxyethyl)]aminoethyl} amino-2-propanol]
Effect on heart rate
  Heart rate (decrease): -8 beats/min.
In vivo; Table 7, oral
  LD50: 1000 to 2000 mg/kg
[2]; [3]
  change in vivo at 1 mg/kg: 4%
[2]; [4]
  change in vivo at 1 mg/kg: 61%

## Cc1cccc(OCC(O)CNCCN(Cc2ccccc2)C(C)COc2ccccc2)c1 (stereo not drawn) [Compound 29, 1-(3-methylphenoxy)-3-{β-[N-benzyl-N-(1-methyl-2-phenoxyethyl)]aminoethyl} amino-2-propanol]
Effect on heart rate
  Heart rate (decrease): -4 beats/min.
[2]; [3]
  change in vivo at 1 mg/kg: -45%
[2]; [4]
  change in vivo at 1 mg/kg: 100%

## CC(COc1ccccc1)N(CCNCC(O)COc1ccc(CC(N)=O)cc1)Cc1ccccc1 (stereo not drawn) [Compound 30, 1-(4-carbamoylmethylphenoxy)-3-{β-[N-benzyl-N-(1-methyl-2-phenoxyethyl)]aminoethyl} amino-2-propanol]
Effect on heart rate
  Heart rate (decrease): -5 beats/min.
[2]; [3]
  change in vivo at 1 mg/kg: -19%
[2]; [4]
  change in vivo at 1 mg/kg: 10%

## COc1ccc(OCC(C)NCC(O)COc2ccc(CC(N)=O)cc2)cc1 (stereo not shown) [Compound 34, 1-(4-carbamoylmethylphenoxy)-3-{1-methyl-2-(4-methoxyphenoxy)ethylamino}-2-propanol]
β2-adrenergic receptor
  β2 blocking activity, percentage inhibition: -57%
In vivo; Table 6, oral
  LD50: > 1000 mg/kg
α-adrenergic receptor
  α blocking activity, percentage inhibition: -36%
β1-adrenergic receptor
  β1 blocking activity, percentage inhibition: -55%
